Results reported in patent US11535630B2, “Apelin receptor (APJ) agonists and uses thereof” (Research Triangle Institute, priority 2015, dated 2022).
Counter-ions that a name gives are not always drawn.

target: T1, apelin receptor (APJ) (Homo sapiens, UniProt P35414); assay: In vitro apelin agonist activity (methods of Giddings et al., Apelin-13 as positive control); format: cell-based; conditions: EC50 (nM) Ave, in vitro apelin agonist activity, methods of Giddings et al., Apelin-13 as positive control
T1 sequence (P35414 1-380): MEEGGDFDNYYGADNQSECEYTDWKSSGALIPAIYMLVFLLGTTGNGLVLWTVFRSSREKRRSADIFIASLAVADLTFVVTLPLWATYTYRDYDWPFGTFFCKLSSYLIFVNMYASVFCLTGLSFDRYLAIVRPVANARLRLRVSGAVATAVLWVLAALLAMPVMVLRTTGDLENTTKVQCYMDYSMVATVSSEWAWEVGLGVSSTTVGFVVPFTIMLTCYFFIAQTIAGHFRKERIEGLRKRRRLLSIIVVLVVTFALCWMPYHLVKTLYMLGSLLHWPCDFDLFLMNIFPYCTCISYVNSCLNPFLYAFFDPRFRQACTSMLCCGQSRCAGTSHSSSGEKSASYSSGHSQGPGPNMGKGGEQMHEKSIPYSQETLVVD
Excerpt: Characterization of the Apelin Agonist Activity of the Compounds
1:39-47, the contents of which are hereby incorporated by reference in its entirety. Using the methods described in Giddings et al. and Apelin-13 as a positive control.

Q: For `O=C(C[C@H](CCN1CCCC[C@H]1C(F)(F)F)NC(=O)c1cc(-c2ccccc2C(F)(F)F)n(C2CCCC2)n1)NC1CCC1` [compound 496, (3S)-N-cyclobutyl-3-({1-cyclopentyl-5-[2-(trifluoromethyl)phenyl]-1H-pyrazol-3-yl}formamido)-5-[(2S)-2-(trifluoromethyl)piperidin-1-yl]pentanamide], which EC50 is on record?
A: Its EC50 is 30 nM.

same assay, conditions: in vitro apelin agonist activity, methods of Giddings et al., Apelin-13 as positive control; read-out: EC50 (nM) Ave

Q: For `O=C(O)C[C@H](CCN1CCCC(F)(F)C1)NC(=O)c1cc(-c2cnccc2Cl)n(C2CCCC2)n1` [compound 467, (3S)-3-{[5-(4-chloropyridin-3-yl)-1-cyclopentyl-1H-pyrazol-3-yl]formamido}-5-(3,3-difluoropiperidin-1-yl)pentanoic acid], which EC50 is on record?
A: The EC50 was greater than 10000 nM.

Q: With `Cc1cc(C)n(CC[C@@H](CC(=O)NC2CCC2)NC(=O)c2cc(-c3ccccc3C(F)(F)F)n(C3CCCC3)n2)n1` [compound 503, (3S)-N-cyclobutyl-3-({1-cyclopentyl-5-[2-(trifluoromethyl)phenyl]-1H-pyrazol-3-yl}formamido)-5-(3,5-dimethyl-1H-pyrazol-1-yl)pentanamide] as the compound, how does the EC50 read?
A: Its EC50 is 157 nM.

Q: For `NNC(=O)C[C@H](CCN1CCCC(F)(F)C1)NC(=O)c1cc(-c2ccccc2Cl)n(C2CCCC2)n1` [compound 465, 5-(2-chlorophenyl)-1-cyclopentyl-N-[(2S)-4-(3,3-difluoropiperidin-1-yl)-1-(hydrazinecarbonyl)butan-2-yl]-1H-pyrazole-3-carboxamide], which EC50 is on record?
A: Its EC50 is 191 nM.

Q: Which EC50 does the source give for `COc1cccc(OC)c1-c1cc(C(=O)N[C@@H](CCc2ccccc2)CC(=O)NCc2nccs2)nn1C1CCCC1` [compound 382, (3S)-3-{[1-cyclopentyl-5-(2,6-dimethoxyphenyl)-1H-pyrazol-3-yl]formamido}-5-phenyl-N-(1,3-thiazol-2-ylmethyl)pentanamide] here?
A: The EC50 was 3440 nM.

Q: Which EC50 does the source give for `CC1(C)CC(=O)CN1CC[C@@H](CC(=O)O)NC(=O)c1cc(-c2ccccc2C(F)(F)F)n(C2CCCC2)n1` [compound 608, (3S)-3-({1-cyclopentyl-5-[2-(trifluoromethyl)phenyl]-1H-pyrazol-3-yl}formamido)-5-(2,2-dimethyl-4-oxopyrrolidin-1-yl)pentanoic acid] here?
A: Its EC50 is 1070 nM.

Q: `C[C@@H](C(=O)O)[C@H](CCN1CCCC(F)(F)C1)NC(=O)c1cc(-c2ccccc2C(F)(F)F)n(C2CCCC2)n1` [compound 597, (2R,3S)-3-({1-cyclopentyl-5-[2-(trifluoromethyl)phenyl]-1H-pyrazol-3-yl}formamido)-5-(3,3-difluoropiperidin-1-yl)-2-methylpentanoic acid] was tested. Which EC50 did it give?
A: The EC50 was 23 nM.

Q: `CC1(F)CCCN(CC[C@@H](CC(=O)O)NC(=O)c2cc(-c3ccccc3C(F)(F)F)n(C3CCCC3)n2)C1` (stereo partly drawn) [compound 613, (3S)-3-({1-cyclopentyl-5-[2-(trifluoromethyl)phenyl]-1H-pyrazol-3-yl}formamido)-5-(3-fluoro-3-methylpiperidin-1-yl)pentanoic acid trifluoroacetate] was tested. Which EC50 did it give?
A: Its EC50 is 104 nM.

Q: Which EC50 does the source give for `O=C(CCNC(=O)c1cc(-c2ccccc2C(F)(F)F)n(C2CCCC2)n1)NCc1ccccc1` [compound 442, N-benzyl-3-({1-cyclopentyl-5-[2-(trifluoromethyl)phenyl]-1H-pyrazol-3-yl}formamido)propanamide] here?
A: Its EC50 is greater than 10000 nM.

Q: With `O=C(C[C@H](CCN1CCCC(F)(F)C1)NC(=O)c1cc(-c2cnccc2Cl)n(C2CCCC2)n1)NC1CCC1` [compound 466, (3S)-3-{[5-(4-chloropyridin-3-yl)-1-cyclopentyl-1H-pyrazol-3-yl]formamido}-N-cyclobutyl-5-(3,3-difluoropiperidin-1-yl)pentanamide] as the compound, how does the EC50 read?
A: Its EC50 is 1220 nM.

Q: For `CC(F)(F)c1ccccc1-c1cc(C(=O)N[C@@H](CCN2CC(F)(F)C2)CC(=O)O)nn1C1CCCC1` [compound 589], which EC50 is on record?
A: Its EC50 is 171 nM.

Q: How did the EC50 turn out when `O=C(C[C@H](CCN1CCCC(F)(F)C1)NC(=O)c1cc(-c2ncccc2C(F)(F)F)n(C2CCCC2)n1)NC1CCC1` [compound 479, (3S)-N-cyclobutyl-3-({1-cyclopentyl-5-[3-(trifluoromethyl)pyridin-2-yl]-1H-pyrazol-3-yl}formamido)-5-(3,3-difluoropiperidin-1-yl)pentanamide] was run?
A: Its EC50 is 0.86 nM.

Q: `O=C(O)C[C@H](CCN1CCCC(F)(F)C1)NC(=O)c1cc(-c2ccc(F)cc2C(F)(F)F)n(C2CCCC2)n1` [compound 554] was tested. Which EC50 did it give?
A: Its EC50 is 126 nM.

Q: `Cc1nnc(C[C@H](CCc2ccc(F)cc2)NC(=O)c2cc(-c3ccccc3C(F)(F)F)n(C3CCCC3)n2)[nH]1` [compound 471, 1-cyclopentyl-N-[(2S)-4-(4-fluorophenyl)-1-(5-methyl-4H-1,2,4-triazol-3-yl)butan-2-yl]-5-[2-(trifluoromethyl)phenyl]-1H-pyrazole-3-carboxamide] was tested. Which EC50 did it give?
A: Its EC50 is 1140 nM.

Q: Which EC50 does the source give for `O=C(O)C[C@H](CCN1C[C@@H](F)[C@@H](F)C1)NC(=O)c1cc(-c2ccccc2C(F)(F)F)n(C2CCCC2)n1` [compound 581, (3S)-3-({1-cyclopentyl-5-[2-(trifluoromethyl)phenyl]-1H-pyrazol-3-yl}formamido)-5-[(3R,4S)-3,4-difluoropyrrolidin-1-yl]pentanoic acid] here?
A: The EC50 was 215 nM.

Q: Which EC50 does the source give for `O=C(O)C[C@H](CCN1C[C@H](F)[C@@H](F)C1)NC(=O)c1cc(-c2ccccc2C(F)(F)F)n(C2CCCC2)n1` [compound 629, (3S)-3-({1-cyclopentyl-5-[2-(trifluoromethyl)phenyl]-1H-pyrazol-3-yl}formamido)-5-[(3S,4S)-3,4-difluoropyrrolidin-1-yl]pentanoic acid] here?
A: Its EC50 is 77 nM.

Q: Which EC50 does the source give for `O=C(C[C@H](CCc1ccc(F)cc1)NC(=O)c1cc(-c2ccccc2C(F)(F)F)n(C2CCCC2)n1)NN1CCCC1` [compound 510, (3S)-3-({1-cyclopentyl-5-[2-(trifluoromethyl)phenyl]-1H-pyrazol-3-yl}formamido)-5-(4-fluorophenyl)-N-(pyrrolidin-1-yl)pentanamide] here?
A: Its EC50 is 2190 nM.

Q: How did the EC50 turn out when `COc1cccc(OC)c1-c1cc(C(=O)N[C@@H](CCNCc2ccncc2)CC(=O)O)nn1C1CCCC1` [compound 310, (3S)-3-{[1-cyclopentyl-5-(2,6-dimethoxyphenyl)-1H-pyrazol-3-yl]formamido}-5-[(pyridin-4-ylmethyl)amino]pentanoic acid] was run?
A: The EC50 was greater than 10000 nM.

Q: Which EC50 does the source give for `O=C(O)C[C@@H](NC(=O)c1cc(-c2ccccc2C(F)(F)F)n(C2CCCC2)n1)C(=O)NC1CCCCC1` [compound 544, (3R)-3-(cyclohexylcarbamoyl)-3-({1-cyclopentyl-5-[2-(trifluoromethyl)phenyl]-1H-pyrazol-3-yl]formamido)propanoic acid] here?
A: Its EC50 is 205 nM.

Q: For `CCc1cc(F)ccc1-c1cc(C(=O)N[C@@H](CCN2CCCCC2)CC(=O)NC2CCC2)nn1C1CCCC1` [compound 399, (3S)-N-cyclobutyl-3-{[1-cyclopentyl-5-(2-ethyl-4-fluorophenyl)-1H-pyrazol-3-yl]formamido}-5-(piperidin-1-yl)pentanamide], which EC50 is on record?
A: The EC50 was 264 nM.

Q: How did the EC50 turn out when `CCN(C(=O)c1cc(-c2cccs2)n(C2CCCC2)n1)[C@@H](CCN1CCCCC1)CC(=O)NC1CCC1` [compound 347] was run?
A: The EC50 was greater than 10000 nM.

Q: How did the EC50 turn out when `CCc1ccccc1-c1cc(C(=O)N[C@@H](CCN2CCCC(F)(F)C2)CC(=O)O)nn1C1CCCC1` [compound 404, (3S)-3-{[1-cyclopentyl-5-(2-ethylphenyl)-1H-pyrazol-3-yl]formamido}-5-(3,3-difluoropiperidin-1-yl)pentanoic acid] was run?
A: The EC50 was 65 nM.

Q: For `COc1cccc(OC)c1-c1cc(C(=O)N[C@H](CCNC2CCC2)CCN2CCCCC2)nn1C1CCCC1` [compound 398, N-[(3R)-1-(cyclobutylamino)-5-(piperidin-1-yl)pentan-3-yl]-1-cyclopentyl-5-(2,6-dimethoxyphenyl)-1H-pyrazole-3-carboxamide], which EC50 is on record?
A: Its EC50 is greater than 10000 nM.

Q: How did the EC50 turn out when `O=C(O)C[C@H](CCNC1CC(F)(F)C1)NC(=O)c1cc(-c2ccccc2C(F)(F)F)n(C2CCCC2)n1` [compound 548, (3S)-3-({1-cyclopentyl-5-[2-(trifluoromethyl)phenyl]-1H-pyrazol-3-yl}formamido)-5-[(3,3-difluorocyclobutyl)amino]pentanoic acid] was run?
A: Its EC50 is 255 nM.

Q: `COc1cccc(OC)c1-c1cc(C(=O)N[C@@H](CCC2CCCCC2)CC(=O)O)nn1CC1CCCCC1` [compound 648] was tested. Which EC50 did it give?
A: The EC50 was greater than 10000 nM.

Q: Which EC50 does the source give for `O=C(O)C[C@H](CCN1CCCC(F)(F)C1)NC(=O)c1cc(-c2ccccc2C(F)(F)F)n(C2CCC2)n1` [compound 552, (3S)-3-({1-cyclobutyl-5-[2-(trifluoromethyl)phenyl]-1H-pyrazol-3-yl}formamido)-5-(3,3-difluoropiperidin-1-yl)pentanoic acid] here?
A: The EC50 was 167 nM.

Q: With `O=C(C[C@H](CCN1CCCCC1)NC(=O)c1cc(-c2c(F)cc(F)cc2F)n(C2CCCC2)n1)NC1CCC1` [compound 354, (3S)-N-cyclobutyl-3-{[1-cyclopentyl-5-(2,4,6-trifluorophenyl)-1H-pyrazol-3-yl]formamido}-5-(piperidin-1-yl)pentanamide] as the compound, how does the EC50 read?
A: Its EC50 is greater than 10000 nM.

Q: `O=C(C[C@H](CCN1CCCCC1)NC(=O)c1cc(-c2ccccc2)n(C2CCCC2)n1)NC1CCC1` [compound 365, (3S)-N-cyclobutyl-3-[(1-cyclopentyl-5-phenyl-1H-pyrazol-3-yl)formamido]-5-(piperidin-1-yl)pentanamide] was tested. Which EC50 did it give?
A: Its EC50 is greater than 10000 nM.

Q: Which EC50 does the source give for `CC(C(=O)NC1CCC1)[C@H](CCN1CC2C(C1)C2(F)F)NC(=O)c1cc(-c2ccccc2C(F)(F)F)n(C2CCCC2)n1` (stereo partly drawn) [compound 636, (3S)-N-cyclobutyl-3-({1-cyclopentyl-5-[2-(trifluoromethyl)phenyl]-1H-pyrazol-3-yl}formamido)-5-{6,6-difluoro-3-azabicyclo[3.1.0]hexan-3-yl}-2-methylpentanamide] here?
A: The EC50 was 158 nM.
